Assay results: PMC8887546, “Design and Synthesis of Brain Penetrant Glycopeptide Analogues of PACAP With Neuroprotective Potential for Traumatic Brain Injury and Parkinsonism” (Frontiers in drug discovery, 2022)

What was measured:
[1] = molecular target: T1, human VPAC2 receptor (Homo sapiens, UniProt P41587); experiment: cAMP stimulation in CHO cells expressing VPAC2; format: cell-based
T1 construct: expressed in transfected cells; host or cells: CHO cells (G418 selection)
T1 sequence (P41587 24-438): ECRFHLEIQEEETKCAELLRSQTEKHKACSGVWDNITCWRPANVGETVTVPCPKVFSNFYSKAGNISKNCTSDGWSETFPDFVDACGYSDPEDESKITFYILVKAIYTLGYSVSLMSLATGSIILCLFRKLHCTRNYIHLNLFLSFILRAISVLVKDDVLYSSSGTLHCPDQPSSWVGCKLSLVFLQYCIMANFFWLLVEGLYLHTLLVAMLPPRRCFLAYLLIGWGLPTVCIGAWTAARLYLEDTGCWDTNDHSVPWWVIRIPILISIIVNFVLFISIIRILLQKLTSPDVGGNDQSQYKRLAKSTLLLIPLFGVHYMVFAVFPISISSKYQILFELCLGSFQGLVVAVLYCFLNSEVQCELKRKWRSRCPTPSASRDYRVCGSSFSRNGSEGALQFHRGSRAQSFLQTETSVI
In short: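 Serum-starved CHO cells expressing human receptors were pre-treated 20 min with 500 μM IBMX, then exposed to agonist concentration curves for 10 min in 500 μM IBMX. cAMP quantified by competition with bovine PKA and ^3H-cAMP (1 h, room temperature), scintillation read.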

[2] = test system: Sprague Dawley rats, 6-OHDA lesion; experiment: Unbiased stereology of TH-positive neurons in SNc (study 1); format: in vivo, rat; settings: mild lesion (25%), 15 mg/kg i.p. 6 h prior to and 24 h post-lesion
Method: Rats were treated with 2LS98Lac or saline (vehicle) as outlined in the Schemes in Figures 9A,B via intraperitoneal (i.p.) injection (15 mg/kg). All animals were made hemi-parkinsonian with unilateral, striatal 6-hydroxydopamine (Sigma Aldrich, St. Louis, MO) injections. After surgery, behavioral assessments were done at 2- and 4-weeks post-surgery. 24 h after the last test animals were either euthanized and whole brains were harvested for future biochemical analysis or perfused and brains collected for immunohistochemistry and stereological assessment of tyrosine hydroxylase-positive (TH+) cells remaining in the SNc. In study 1: n = 16 each group were included, and all underwent the behavioral analysis: n = 16, and for the stereology in the SNc, n = 8 each group was used. In study 2: n = 23 each group were included. […]
Stereological probes were applied using a Zeiss Imager M2 microscope (Carl Zeiss, Jena, Germany) equipped with StereoInvestigator software (MBF Bioscience, VT, United States) according to previously published methods ([Corenblum et al., 2015]; [Anandhan et al., 2021]). Using the optical fractionator probe, cells were counted under the ×63 oil immersion objective by a blinded observer. TH+ cells were counted in sections 480 μm apart using a grid size of 170 × 100 μm and counting frame size of 75 × 75 μm. […]

[2H]C([2H])([2H])C([2H])(C([2H])([2H])[2H])[C@]([2H])(NC(=O)[C@H](C)NC(=O)[C@H](C)NC(=O)[C@H](CC(C)C)NC(=O)[C@H](Cc1ccc(O)cc1)NC(=O)[C@H](CCCCN)NC(=O)[C@H](CCCCN)NC(=O)[C@@]([2H])(NC(=O)[C@H](C)NC(=O)[C@H](CC(C)C)NC(=O)[C@H](CCC(N)=O)NC(=O)[C@H](CCCCN)NC(=O)[C@H](CCCNC(=N)N)NC(=O)[C@H](Cc1ccc(O)cc1)NC(=O)[C@H](CCCNC(=N)N)NC(=O)[C@H](CO)NC(=O)[C@H](Cc1ccc(O)cc1)NC(=O)[C@H](CO)NC(=O)[C@H](CC(=O)O)NC(=O)[C@@H](NC(=O)[C@H](Cc1ccccc1)NC(=O)[C@@H](NC(=O)CNC(=O)[C@H](CC(=O)O)NC(=O)[C@H](CO)NC(=O)[C@@H](N)Cc1c[nH]cn1)[C@@H](C)CC)[C@@H](C)O)C([2H])(C([2H])([2H])[2H])C([2H])([2H])[2H])C(=O)N[C@@H](CC(C)C)C(=O)N[C@@H](CO[C@@H]1O[C@H](CO)[C@@H](O[C@@H]2O[C@H](CO)[C@H](O)[C@H](O)[C@H]2O)[C@H](O)[C@H]1O)C(N)=O [Compound 2LS98Lac]
EC50 [1]: 193 nM | Emax ([1]; CHO): 100% | Receptor selectivity ratio VPAC2/PAC1 ([1]; ratio of cAMP EC50 values): 268.06 | Receptor selectivity ratio VPAC2/VPAC1 ([1]; ratio of cAMP EC50 values): 428.89 | TH-positive neurons in SNc, lesioned vs intact side [2]: neuronal cell death was attenuated
